US8779132B2, “Pharmaceutical compounds” (Astex Therapeutics Limited, priority 2006, dated 2014)
pIC50: −log10 of the molar value. Structures can show the parent of a compound that is named as a salt.

What was measured:
[1] = tested on: HCT116 cell line; assay: Anti-proliferative activity, Alamar Blue assay; assay type: cell-based; details: Homo sapiens, HCT-116, 72 h
Method: The anti-proliferative activities of compounds of the invention can be determined by measuring the ability of the compounds to inhibition of cell growth in a number of cell lines such as the human colon cancer cell line HCT116. […] The method is based on the ability of viable cells to reduce resazurin to its fluorescent product resorufin. […] The number of viable cells is determined by Alamar Blue assay as before. Cell lines can be obtained from the ECACC (European Collection of cell Cultures).

[2] = Plasma stability studies; assay type: in vitro ADME; details: mouse plasma, 37° C., approximately 1 hour
Method: The ease with which pro-drug compounds of the invention can be converted to the active moiety can be assessed by measuring the in vitro plasma stability of the compounds. The method is based on the ability of plasma enzymes to metabolise compounds to the active moiety. Compounds are added to plasma and incubated at 37° C. for approximately 1 hour. Aliquots of plasma are removed at timed intervals and the compound extracted by the addition of acetonitrile containing an internal standard. All extracts are then analysed for parent compound, the active moiety and the internal standard using a compound specific LCMS-MS assay. Stability is measured by comparison of the peak area ratio of the parent compound and internal standard at time zero with the peak area ratio of the parent compound and internal standard in the incubated samples. Generation of the active moiety in samples is also assessed.

SMILES | pIC50 [1] | generation of the active moiety (2,4-dihydroxy-5-isopropyl-phenyl)-[5-(4-methyl-piperazin-1-yl)-1,3-dihydro-isoindol-2-yl]-methanone [2] | in vitro plasma stability [2]
CC(C)c1cc(C(=O)N2Cc3ccccc3C2)c(O)cc1O [Example 5, (1,3-Dihydro-isoindol-2-yl)-(2,4-dihydroxy-5-isopropyl-phenyl)-methanone] | > 6.00 |  | 
CC(C)c1cc(C(=O)N2Cc3ccc(C(=O)N4CCNCC4)cc3C2)c(O)cc1O [Example 54, (2,4-dihydroxy-5-isopropyl-phenyl)-[5-(piperazine-1-carbonyl)-1,3-dihydro-isoindol-2-yl]-methanone hydrochloride] | > 6.00 |  | 
CC(=O)Oc1cc(OC(C)=O)c(C(C)C)cc1C(=O)N1Cc2ccc(N3CCN(C)CC3)cc2C1 [Example 84, acetic acid 5-acetoxy-4-isopropyl-2-[5-(4-methyl-piperazin-1-yl)-1,3-dihydro-isoindole-2-carbonyl]-phenyl ester] |  | formed the active moiety | range of stabilities
CC(C)c1cc(C(=O)N2Cc3ccc(N4CCN(C)CC4)cc3C2)c(OC(=O)C(C)(C)C)cc1OC(=O)C(C)(C)C [Example 85, 2,2-dimethyl-propionic acid 5-(2,2-dimethyl-propionyloxy)-4-isopropyl-2-[5-(4-methyl-piperazin-1-yl)-1,3-dihydro-isoindole-2-carbonyl]-phenyl ester] |  | formed the active moiety | range of stabilities
CC(C)c1cc(C(=O)N2Cc3ccc(N4CCN(C)CC4)cc3C2)c(OC(=O)N(C)C)cc1OC(=O)N(C)C [Example 86, dimethyl-carbamic acid 5-dimethylcarbamoyloxy-2-isopropyl-4-[5-(4-methyl-piperazin-1-yl)-1,3-dihydro-isoindole-2-carbonyl]-phenyl ester] |  | formed the active moiety | range of stabilities
